According to PubChem BioAssay AID687005 (Broad Institute, 2013):
Inconclusive results are not listed. The source made the active and inactive calls.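 How the source made its calls: active means Compounds that reduce signal, with fitted half-maximal dose at or under twice the top valid tested dose; inconclusive means Poor fit, or flat curve losing 30 to 70% of signal; inactive means Potency past limit, flat within 30%, or opposite direction.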

Experiment: viability loss in HEK293T cells – cell-based, ATP luminescence, cherry-pick samples, cytotoxicity control, dose response (AID 687005)
Conditions: HEK293T viability, ATP luminescence (CellTiter-Glo), 48 h; at 23.5 µM (top of the series)
With O=C(NC[C@@H]1[C@@H](c2ccccc2)[C@H](CO)N1C(=O)C1CCC1)NC1CCCC1 the activity change, negative = cytotoxicity was -9.04% (inactive). With CC(C)NC(=O)Nc1ccc2c(c1)C(=O)N([C@@H](C)CO)C[C@@H](C)[C@@H](CN(C)C(=O)NC1CCCCC1)OCCCC[C@H](C)O2 the activity change, negative = cytotoxicity was -7.35% (inactive). In the case of C[C@H]1CN([C@@H](C)CO)C(=O)c2cc(NC(=O)Nc3ccc(F)cc3)ccc2O[C@@H]1CN(C)S(C)(=O)=O, the activity change, negative = cytotoxicity is reported as 2.53% (inactive). For CO[C@@H]1CN(C)C(=O)c2ccc(NC(C)=O)cc2OC[C@@H](C)N(C(=O)c2ccccn2)C[C@H]1C, the activity change, negative = cytotoxicity was 14.8% (inactive). With O=C(C[C@@H]1C[C@@H]2c3cc(NC(=O)Nc4ccc(F)cc4)ccc3O[C@@H]2[C@@H](CO)O1)NCC1CC1 the activity change, negative = cytotoxicity was 26.7% (inactive). For Cc1noc(C)c1S(=O)(=O)Nc1ccc2c(c1)CC(=O)N([C@@H](C)CO)C[C@@H](C)[C@@H](CN(C)S(=O)(=O)c1cccs1)O2, the activity change, negative = cytotoxicity was -16.9% (inactive). In the case of CN1c2ccc(Br)cc2[C@@H]2[C@@H](CCN2C(=O)Cc2cccnc2)[C@@H]1CO, the activity change, negative = cytotoxicity is reported as -13.9% (inactive). With Cc1ccc(S(=O)(=O)N2C[C@@H](O)COC[C@H]3O[C@H](CC(=O)NCc4ccc5c(c4)OCO5)CC[C@@H]32)cc1 the activity change, negative = cytotoxicity was -12.4% (inactive).

Same assay, conditions: HEK293T viability, ATP luminescence (CellTiter-Glo), 48 h; at 26 µM (top of the series)
In the case of COCCNC(=O)C[C@H]1CC[C@@H]2[C@H](COC[C@H](O)CN2S(=O)(=O)c2ccccc2C)O1, the activity change, negative = cytotoxicity is reported as 15.9% (inactive). With CCNC(=O)Nc1ccc2c(c1)C(=O)N(C)[C@H]1CC[C@H](CC(=O)N[C@@H](C)c3ccccc3)O[C@H]1CO2 the activity change, negative = cytotoxicity was 75.7% (inactive). With CCC(=O)N(C)C[C@H]1Oc2cc(C#CC(C)(C)O)ccc2S(=O)(=O)N([C@@H](C)CO)C[C@@H]1C the activity change, negative = cytotoxicity was 8.91% (inactive). For COc1ccc(C#Cc2ccc3c(c2)O[C@H](CN(C)C(C)=O)[C@@H](C)CN([C@@H](C)CO)S3(=O)=O)cc1, the activity change, negative = cytotoxicity was -74% (inactive). With C[C@@H]1CCCCO[C@@H](CN(C)C(=O)CCCN(C)C)[C@@H](C)CN([C@H](C)CO)C(=O)c2cc(NC(=O)Cc3ccccc3)ccc2O1 the activity change, negative = cytotoxicity was 13.4% (inactive). With C[C@H]1CN([C@@H](C)CO)C(=O)Cc2cc(N(C)C)ccc2O[C@@H]1CN(C)C(=O)Nc1ccc(C(F)(F)F)cc1 the activity change, negative = cytotoxicity was -28.9% (inactive). For COc1ccccc1C(=O)Nc1ccc2c(c1)C(=O)N(C)C[C@@H](OC)[C@H](C)CN(C)[C@@H](C)CO2, the activity change, negative = cytotoxicity was 0.103% (inactive). With Cc1c(C(=O)NC(=S)Nc2ccc(N3CCOCC3)cc2)cccc1[N+](=O)[O-] the activity change, negative = cytotoxicity was -33.3% (inactive). In the case of C[C@H](CO)N1C[C@H](C)[C@H](CN(C)C(=O)Nc2ccc3c(c2)OCO3)Oc2ncc(-c3ccc(F)cc3)cc2C1=O, the activity change, negative = cytotoxicity is reported as -18.8% (inactive). With CC=Cc1ccc2n(c1=O)C[C@H]1[C@H](CO)[C@@H](C(=O)N3CCc4ccccc4C3)N(C(=O)C3CC3)[C@@H]21 (mixture of isomers) the activity change, negative = cytotoxicity was -9.72% (inactive). For COCC#Cc1cnc2c(c1)C(=O)N([C@@H](C)CO)C[C@@H](C)[C@@H](CN(C)C(=O)C1CC1)O2, the activity change, negative = cytotoxicity was -14.4% (inactive). With C[C@H](NC(=O)C[C@@H]1C=C[C@H](NC(=O)CN2CCOCC2)[C@H](CO)O1)c1ccccc1 the activity change, negative = cytotoxicity was -20.9% (inactive). In the case of Cc1noc(C)c1NC(=O)Nc1ccc2c(c1)C(=O)N([C@H](C)CO)C[C@H](C)[C@H](CN(C)CC1CCCCC1)O2, the activity change, negative = cytotoxicity is reported as 40.9% (inactive). With C[C@H]1CN([C@@H](C)CO)C(=O)CCCn2cc(nn2)CO[C@@H]1CN(C)Cc1ccc(C(F)(F)F)cc1 the activity change, negative = cytotoxicity was -2.59% (inactive). With CCCNC(=O)N1C[C@H](O)COC[C@H]2O[C@H](CC(=O)N3CCN(C)CC3)CC[C@@H]21 the activity change, negative = cytotoxicity was -14.1% (inactive). In the case of C[C@@H]1CN([C@H](C)CO)C(=O)c2cc(NS(=O)(=O)c3cn(C)cn3)ccc2O[C@@H](C)CCCCO[C@H]1CN(C)C, the activity change, negative = cytotoxicity is reported as 21.8% (inactive). In the case of C[C@H]1CN([C@@H](C)CO)C(=O)c2cccc(NS(=O)(=O)c3cn(C)cn3)c2O[C@@H]1CN(C)CC1CCCCC1, the activity change, negative = cytotoxicity is reported as -5.42% (inactive). In the case of C[C@@H]1CN([C@@H](C)CO)C(=O)c2cccc(NC(=O)c3ccncc3)c2O[C@H]1CN(C)C(=O)Nc1ccccc1, the activity change, negative = cytotoxicity is reported as 6.14% (inactive). In the case of C/C=C/c1cnc2c(c1)C(=O)N([C@@H](C)CO)C[C@@H](C)[C@@H](CN(C)C(=O)C1CCCCC1)O2, the activity change, negative = cytotoxicity is reported as 10.3% (inactive). In the case of O=C1CCC(C(=O)Nc2ccc(Cl)cc2)N1 (configuration not stated), the activity change, negative = cytotoxicity is reported as 11% (inactive). For CO[C@H](CN(C)Cc1ccc2c(c1)OCO2)[C@@H](C)CN(C(=O)c1ccccc1)[C@@H](C)CO, the activity change, negative = cytotoxicity was -12.9% (inactive). With O=C(Oc1ccc2c3c(c(=O)oc2c1)CCCC3)c1ccco1 the activity change, negative = cytotoxicity was -27.5% (inactive). With C[C@H](CO)N1C[C@H](C)[C@@H](CN(C)C(=O)c2cccc(F)c2)Oc2cc(-c3cncnc3)ccc2S1(=O)=O the activity change, negative = cytotoxicity was -22.6% (inactive). For Cc1noc(C)c1NC(=O)N(C)C[C@H]1Oc2ccc(N(C)C)cc2C(=O)N([C@H](C)CO)C[C@@H]1C, the activity change, negative = cytotoxicity was -11.8% (inactive). For CCC(=O)N1C[C@H](O)COC[C@@H]2O[C@@H](CC(=O)NCc3ccccc3Cl)CC[C@H]21, the activity change, negative = cytotoxicity was 1.37% (inactive). For COc1ccc(CN(C)C[C@@H]2OCCCC[C@H](C)Oc3ccc(N(C)C)cc3C(=O)N([C@H](C)CO)C[C@@H]2C)cc1, the activity change, negative = cytotoxicity was 12.7% (inactive). With COc1ccc(NC(=O)Nc2ccc3c(c2)C(=O)N([C@@H](C)CO)C[C@@H](C)[C@H](CN(C)C(=O)Cc2ccccc2)OCCCC[C@H](C)O3)cc1 the activity change, negative = cytotoxicity was -2.88% (inactive). With CO[C@@H]1CN(C)C(=O)c2ccc(NC(=O)C3CC3)cc2OC[C@H](C)N(C(=O)c2ccncc2)C[C@H]1C the activity change, negative = cytotoxicity was -27.7% (inactive). In the case of CNC[C@@H]1OCCCC[C@H](C)Oc2ccc(NC(=O)NC(C)C)cc2C(=O)N([C@H](C)CO)C[C@H]1C, the activity change, negative = cytotoxicity is reported as 14.1% (inactive). With CCC(=O)N(C)C[C@H]1Oc2cc(C#CC(C)(C)O)ccc2S(=O)(=O)N([C@H](C)CO)C[C@@H]1C the activity change, negative = cytotoxicity was 41.1% (inactive). For CC(C)CC#Cc1ccc2c(c1)O[C@@H](CN(C)C(=O)C1CCC1)[C@@H](C)CN([C@H](C)CO)S2(=O)=O, the activity change, negative = cytotoxicity was 1.96% (inactive). With CCN(Cc1ccccc1)C(=O)COc1ccccc1 the activity change, negative = cytotoxicity was -2.56% (inactive). In the case of CC(C)NC(=O)Nc1ccc2c(c1)C(=O)N([C@H](C)CO)C[C@H](C)[C@H](CN(C)Cc1ccncc1)OCCCC[C@H](C)O2, the activity change, negative = cytotoxicity is reported as -57.3% (inactive). In the case of CC(C)NC(=O)Nc1ccc2c(c1)C(=O)N([C@@H](C)CO)C[C@@H](C)[C@@H](CN(C)C(=O)NC(C)C)OCCCC[C@@H](C)O2, the activity change, negative = cytotoxicity is reported as 20.5% (inactive). In the case of Cc1ccccc1-n1ncc2c(SCC(=O)NCc3cccs3)ncnc21, the activity change, negative = cytotoxicity is reported as -48.1% (inactive). In the case of O=C(C[C@@H]1CC[C@H]2[C@@H](COC[C@H](O)CN2Cc2cccc(C(F)(F)F)c2)O1)NCc1ccccc1, the activity change, negative = cytotoxicity is reported as -14.1% (inactive). For O=C(C[C@H]1C=C[C@H](NC(=O)Nc2cc(F)ccc2F)[C@@H](CO)O1)NCCCN1CCOCC1, the activity change, negative = cytotoxicity was 27.4% (inactive). In the case of CNC[C@H]1OCCCC[C@H](C)Oc2ccc(NC(=O)CCCN(C)C)cc2C(=O)N([C@H](C)CO)C[C@@H]1C, the activity change, negative = cytotoxicity is reported as 15.7% (inactive). For Cc1cccc(C)c1NC(=O)C1(C)CCC(=O)N1CCCn1ccnc1 (configuration not stated), the activity change, negative = cytotoxicity was -14.5% (inactive). With CO[C@H]1CC[C@@H]2CCOc3c(C#N)cccc3C(=O)N(C)C[C@@H](OC)[C@@H](C)C(=O)N(C)C[C@@H]1O2 the activity change, negative = cytotoxicity was -16.3% (inactive). In the case of Cc1noc(C)c1NC(=O)N(C)C[C@H]1OCCCC[C@@H](C)Oc2ccc(NC(=O)NC(C)C)cc2C(=O)N([C@H](C)CO)C[C@H]1C, the activity change, negative = cytotoxicity is reported as -10.9% (inactive). In the case of Cc1cc(Cl)ccc1NC(=S)NCc1ccc(F)cc1, the activity change, negative = cytotoxicity is reported as 6.1% (inactive). For CCC(C)c1ccc(NC(=S)N2CCN(c3ccccn3)CC2)cc1 (configuration not stated), the activity change, negative = cytotoxicity was 13.7% (inactive). For CC(=O)N(C)C[C@H]1Oc2cc(C#Cc3ccc(F)cc3)ccc2S(=O)(=O)N([C@H](C)CO)C[C@@H]1C, the activity change, negative = cytotoxicity was 53% (inactive). In the case of CN1C(=O)N[C@@H]2c3ccccc3O[C@@]1(C)[C@@H]2COC(=O)c1ccccc1, the activity change, negative = cytotoxicity is reported as -8.64% (inactive). For C[C@@H]1CN([C@@H](C)CO)C(=O)Cc2cc(NS(=O)(=O)c3ccccc3)ccc2O[C@@H]1CN(C)Cc1ccc(Cl)c(Cl)c1, the activity change, negative = cytotoxicity was -71.5% (inactive). In the case of C[C@H]1CN([C@@H](C)CO)C(=O)c2cccc(N(C)C)c2O[C@@H]1CN(C)C(=O)Nc1cccc2ccccc12, the activity change, negative = cytotoxicity is reported as -6.36% (inactive). With C[C@@H]1CN([C@@H](C)CO)C(=O)CCCn2nncc2CO[C@@H]1CN(C)Cc1cccc(C(F)(F)F)c1 the activity change, negative = cytotoxicity was -9.87% (inactive). With C[C@@H]1CN([C@H](C)CO)C(=O)c2cc(-c3ccc(C#N)cc3)cnc2O[C@@H]1CN(C)C(=O)Nc1ccc(F)cc1 the activity change, negative = cytotoxicity was -0.869% (inactive).

Same assay, conditions: HEK293T viability, ATP luminescence (CellTiter-Glo), 48 h; at 28.5 µM (top of the series)
In the case of C[C@@H]1CN([C@@H](C)CO)C(=O)CCCn2cc(nn2)CO[C@@H]1CN(C)C(=O)CCCN(C)C, the activity change, negative = cytotoxicity is reported as 6.9% (inactive). In the case of COC(=O)C1=C(C)N(Cc2ccc(F)cc2)C(=S)NC1c1ccccc1 (configuration not stated), the activity change, negative = cytotoxicity is reported as 17.5% (inactive).

Same assay, conditions: HEK293T viability, ATP luminescence (CellTiter-Glo), 48 h; at 35 µM (top of the series)
In the case of Cc1ccc(NC(=O)C2(C)CCN2C(=O)CCC2CCCC2)cc1C (configuration not stated), the activity change, negative = cytotoxicity is reported as -23.2% (inactive).

Same assay, conditions: HEK293T viability, ATP luminescence (CellTiter-Glo), 48 h; at 38 µM (top of the series)
With CCCC(C)(C)C(=O)N1CCC1(C)C(=O)Nc1ccc(C)cc1 (configuration not stated) the activity change, negative = cytotoxicity was -11.3% (inactive).

Same assay, conditions: HEK293T viability, ATP luminescence (CellTiter-Glo), 48 h; at 46 µM (top of the series)
In the case of CCC(C)(C(=O)Nc1cccc(C)c1)N1CCC1=O (configuration not stated), the activity change, negative = cytotoxicity is reported as 0.095% (inactive).
